From patent US20160272617A1, “SUBSTITUTED PHENYLALANINE DERIVATIVES” (BAYER PHARMA AKTIENGESELLSCHAFT, priority 2013, published 2016)
Where a name gives a salt, the structure may show the parent alone. Values belong to the compound of their own block, whether it stands above or below them.

Columns and labels:
human factor XIa = target: T1, human factor XIa (Homo sapiens, UniProt P03951); assay: Measurement of FXIa inhibition (fluorogenic peptide substrate Boc-Glu(OBzl)-Ala-Arg-AMC); type: biochemical; conditions: factor XIa from Kordia, 15 min preincubation, 30 min at 22° C., fluorescence
T1 construct: purchased Kordia
Protocol: The factor XIa inhibition of the inventive substances is determined using a biochemical test system which utilizes the reaction of a peptidic factor XIa substrate to determine the enzymatic activity of human factor XIa. Here, factor XIa cleaves from the peptic factor XIa substrate the C-terminal aminomethylcoumarin (AMC), the fluorescence of which is measured. The determinations are carried out in microtitre plates.
Test substances are dissolved in dimethyl sulphoxide and serially diluted in dimethyl sulphoxide (3000 μM to 0.0078 μM; resulting final concentrations in the test: 50 μM to 0.00013 μM). In each case 1 μl of the diluted substance solutions is placed into the wells of white microtitre plates from Greiner (384 wells). Subsequently, the following are added successively: 20 μl of assay buffer (50 mmol/l Tris buffer pH 7.4; 100 mmol/l sodium chloride; 5 mmol/l calcium chloride; 0.1% bovine serum albumin) and 20 μl of factor XIa from Kordia (0.45 nM in assay buffer). After 15 min of incubation, the enzyme reaction is started by addition of 20 μl of the factor XIa substrate Boc-Glu(OBzl)-Ala-Arg-AMC dissolved in assay buffer (10 μM in assay buffer) from Bachem, the mixture is incubated at room temperature (22° C.) for 30 min and fluorescence is then measured (excitation: 360 nm, emission: 460 nm). The measured emissions of the test mixtures with test substance are compared to those of control mixtures without test substance (only dimethyl sulphoxide instead of test substance in dimethyl sulphoxide), and the IC50 values are calculated from the concentration/activity relationships.

human and animal plasma = assay: Determination of anticoagulatory activity: activated partial thromboplastin time (aPTT) in plasma; conditions: concentration of test substance which brings about a 1.5-fold extension of the aPTT; plasma species not given
Protocol: The anticoagulatory activity of the test substances is determined in vitro in human and animal plasma (for example mouse, rat, rabbit, pig and dog plasma). To this end, blood is drawn off in a mixing ratio of sodium citrate/blood of 1:9 using a 0.11 molar sodium citrate solution as receiver. Immediately after the blood has been drawn off, it is mixed thoroughly and centrifuged at about 4000 g for 15 minutes. The supernatant is pipetted off.
The activated partial thromboolastin time (aPTT) is determined in the presence of varying concentrations of test substance or the corresponding solvent using a commercial test kit (C. K. Prest from Diagnostica Stago). The test compounds are incubated with the plasma and the PTT reagent (cephalin, kaolin) at 37° C. for 3 minutes. Coagulation is then started by addition of a 25 mM aqueous calcium chloride solution, and the time when coagulation occurs is determined. The concentration of test substance which brings about a 1.5-fold extension of the aPTT is determined.

T1 sequence (P03951 388-625 limits assumed): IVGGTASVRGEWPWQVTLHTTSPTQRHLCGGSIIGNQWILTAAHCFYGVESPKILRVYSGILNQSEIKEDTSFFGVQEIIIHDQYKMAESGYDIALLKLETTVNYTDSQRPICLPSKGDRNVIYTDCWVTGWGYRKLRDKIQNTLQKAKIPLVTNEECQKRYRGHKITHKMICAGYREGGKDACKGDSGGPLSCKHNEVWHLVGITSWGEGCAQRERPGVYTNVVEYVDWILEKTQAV
T1 sequence (P03951 19-387 partner limits assumed): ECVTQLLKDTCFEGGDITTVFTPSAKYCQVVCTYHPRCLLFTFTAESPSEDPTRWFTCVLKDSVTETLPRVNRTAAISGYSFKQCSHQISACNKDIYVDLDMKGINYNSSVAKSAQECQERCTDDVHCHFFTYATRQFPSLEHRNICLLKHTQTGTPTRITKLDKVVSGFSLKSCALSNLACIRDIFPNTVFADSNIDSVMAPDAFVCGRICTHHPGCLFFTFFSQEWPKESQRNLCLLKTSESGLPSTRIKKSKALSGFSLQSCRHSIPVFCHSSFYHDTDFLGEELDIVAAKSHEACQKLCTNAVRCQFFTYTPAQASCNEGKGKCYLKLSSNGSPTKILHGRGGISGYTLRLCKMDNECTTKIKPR

IC50 (human factor XIa): 1.1 nM
SMILES: Cc1cc(C(=O)N[C@H]2CC[C@H](O)CC2)ccc1-c1ccc(CC(NC(=O)[C@H]2CC[C@H](CN)CC2)C(=O)Nc2ccc(-c3nnc(C(F)(F)C(F)(F)C(=O)O)[nH]3)cc2)cc1 (mixture of isomers) [Example 103, 3-[5-(4-{[2-({[trans-4-(Aminomethyl)cyclohexyl]carbonyl}amino)-3-{4′-[(trans-4-hydroxycyclohexyl)carbamoyl]-2′-methylbiphenyl-4-yl}propanoyl]amino}phenyl)-4H-1,2,4-triazol-3-yl]-2,2,3,3-tetrafluoropropanoic acid hydrochloride (enantiomer mixture)]
aPTT (human and animal plasma): 0.1 µmol/L

SMILES: Cc1cc(C(=O)N[C@H]2CC[C@H](O)CC2)ccc1-c1ccc(C[C@H](NC(=O)[C@H]2CC[C@H](CN)CC2)C(=O)Nc2ccc(-c3nnc(C(F)(F)C(F)(F)C(=O)O)[nH]3)cc2)cc1 (single isomer, unassigned; enantiomer 1) [Example 104]
IC50 (human factor XIa): 0.4 nM | aPTT (human and animal plasma): 0.05 µmol/L

IC50 (human factor XIa): 4.9 nM
SMILES: CCN(CC)CCNC(=O)c1ccc(-c2ccc(C[C@H](NC(=O)[C@H]3CC[C@H](CN)CC3)C(=O)Nc3ccc(-c4nn[nH]n4)cc3)cc2)c(C)c1.Cl [Example 2, 4′-[(2S)-2-({[trans-4-(Aminomethyl)cyclohexyl]carbonyl}amino)-3-oxo-3-{[4-(2H-tetrazol-5-yl)phenyl]amino}propyl]-N-[2-(diethylamino)ethyl]-2-methylbiphenyl-4-carboxamide hydrochloride]
aPTT (human and animal plasma): 0.14 µmol/L

SMILES: Cc1cc(C(=O)NCCN)ccc1-c1ccc(C[C@H](NC(=O)[C@H]2CC[C@H](CN)CC2)C(=O)Nc2ccc3cn[nH]c3c2)cc1 [Example 3, N-(2-Aminoethyl)-4′-[(2S)-2-({[trans-4-(aminomethyl)cyclohexyl]carbonyl}amino)-3-(1H-indazol-6-ylamino)-3-oxopropyl]-2-methylbiphenyl-4-carboxamide hydrochloride]
IC50 (human factor XIa): 11 nM | aPTT (human and animal plasma): 0.2 µmol/L

SMILES: Cc1cc(C(=O)NC2CCNCC2)ccc1-c1ccc(C[C@H](NC(=O)[C@H]2CC[C@H](CN)CC2)C(=O)Nc2ccc3cn[nH]c3c2)cc1 [Example 4, 4′-[(2S)-2-({[trans-4-(Aminomethyl)cyclohexyl]carbonyl}amino)-3-(1H-indazol-6-ylamino)-3-oxopropyl]-2-methyl-N-(piperidin-4-yl)biphenyl-4-carboxamide hydrochloride]
IC50 (human factor XIa): 11.9 nM | aPTT (human and animal plasma): 0.21 µmol/L

SMILES: Cc1cc(C(=O)N2CCNCC2)ccc1-c1ccc(C[C@H](NC(=O)[C@H]2CC[C@H](CN)CC2)C(=O)Nc2ccc3cn[nH]c3c2)cc1 [Example 5, trans-4-(Aminomethyl)-N-{(2S)-1-(1H-indazol-6-ylamino)-3-[2′-methyl-4′-(piperazin-1-ylcarbonyl)biphenyl-4-yl]-1-oxopropan-2-yl}cyclohexanecarboxamide hydrochloride]
IC50 (human factor XIa): 16 nM | aPTT (human and animal plasma): 0.21 µmol/L

SMILES: CCN(CC)CCNC(=O)c1ccc(-c2ccc(C[C@H](NC(=O)[C@H]3CC[C@H](CN)CC3)C(=O)Nc3ccc4cn[nH]c4c3)cc2)c(C)c1 [Example 6, 4′-[(2S)-2-({[trans-4-(Aminomethyl)cyclohexyl]carbonyl}amino)-3-(1H-indazol-6-ylamino)-3-oxopropyl]-N-[2-(diethylamino)ethyl]-2-methylbiphenyl-4-carboxamide hydrochloride]
IC50 (human factor XIa): 17 nM | aPTT (human and animal plasma): 0.21 µmol/L

SMILES: Cc1cc(C(=O)NC2CCN(C)CC2)ccc1-c1ccc(C[C@H](NC(=O)[C@H]2CC[C@H](CN)CC2)C(=O)Nc2ccc(-c3nc(C(F)(F)C(F)(F)C(=O)O)n[nH]3)cc2)cc1 [Example 130, 3-[5-(4-{[(2S)-2-({[trans-4-(Aminomethyl)cyclohexyl]carbonyl}amino)-3-{2′-methyl-4′-[(1-methylpiperidin-4-yl)carbamoyl]biphenyl-4-yl}propanoyl]amino}phenyl)-1H-1,2,4-triazol-3-yl]-2,2,3,3-tetrafluoropropanoic acid]
aPTT (human and animal plasma): 0.12 µmol/L
